Experimental data taken from a polymer gas permeability compilation.

Row | SMILES | H2 permeability [Barrer] | N2 permeability [Barrer] | O2 permeability [Barrer]
1 | *C(C(=O)OC(C)C)C(*)C(=O)OC(C)CC (repeat unit) | 51 | 5 | 12
2 | *C(C(=O)OC(C)C)C(*)C(=O)OC(C)CC(C)C (repeat unit) | 156 | 14 | 45
3 | *C(C(=O)OC(C)CC(C)C)C(*)C(=O)OC(C)(C)C (repeat unit) | 169 | 16 | 49
4 | *C(C(=O)OC(C)CC)C(*)C(=O)OC(C)(C)C (repeat unit) | 145 | 13 | 39
5 | *[Si](C)(C)CCCCCC[Si](*)(C)C (repeat unit) | – | 81 | 182
6 | *c1ccc(-c2ccc(N3C(=O)c4ccc([Si](C)(C)c5ccc6c(c5)C(=O)N(*)C6=O)cc4C3=O)c(OC)c2)cc1OC (repeat unit) | 9.33 | 0.096 | 0.53
7 | *c1ccc(-c2nc3cc(-c4ccc5[nH]c(*)nc5c4)ccc3[nH]2)c(Br)c1 (repeat unit) | 0.38 | – | 0.006
8 | *c1ccc(Cc2ccc(N3C(=O)c4ccc(Oc5ccc6c(c5)C(=O)N(*)C6=O)cc4C3=O)cc2)cc1 (repeat unit) | 5.62 | 0.028 | 0.261
9 | *c1ccc(Cc2ccc(N3C(=O)c4ccc(S(=O)(=O)c5ccc6c(c5)C(=O)N(*)C6=O)cc4C3=O)cc2)cc1 (repeat unit) | 6.32 | 0.032 | 0.296
10 | *c1ccc(Cc2ccc(N3C(=O)c4ccc(Sc5ccc6c(c5)C(=O)N(*)C6=O)cc4C3=O)cc2)cc1 (repeat unit) | 5.43 | 0.027 | 0.246
11 | *c1ccc(N2C(=O)c3ccc(C(=O)Oc4ccc(C(c5ccc(OC(=O)c6ccc7c(c6)C(=O)N(*)C7=O)cc5)(C(F)(F)F)C(F)(F)F)cc4)cc3C2=O)cc1 (repeat unit) | 4.36 | 0.0355 | 0.251
12 | *c1ccc(Oc2ccc(N3C(=O)c4ccc(Oc5ccc(Oc6ccc7c(c6)C(=O)N(*)C7=O)cc5)cc4C3=O)cc2)cc1 (repeat unit) | 4 | 0.034 | 0.216
13 | *c1ccc(Oc2ccc(N3C(=O)c4ccc(Sc5ccc6c(c5)C(=O)N(*)C6=O)cc4C3=O)cc2)cc1 (repeat unit) | 4.68 | 0.021 | 0.198
14 | *c1ccc2c(c1)C(=O)n1c-2nc2ccc(-c3ccc4c(c3)nc3n4C(=O)c4ccc(C(*)(C(F)(F)F)C(F)(F)F)cc4-3)cc21 (repeat unit) | 74.4 | 1.44 | 7.75
15 | *c1ccc2c(c1)C(=O)n1c-2nc2ccc(Oc3ccc4c(c3)nc3n4C(=O)c4ccc(C(*)(C(F)(F)F)C(F)(F)F)cc4-3)cc21 (repeat unit) | 54.9 | 0.81 | 5.04
16 | *c1cccc(-c2nc3cc(-c4ccc5[nH]c(*)nc5c4)ccc3[nH]2)n1 (repeat unit) | 1.38 | – | 0.045
